Measurements taken from the NIST ThermoML archive (doi:10.1021/je5007696).

Assay: xn = mol fraction of the nth substance listed
Settings: 100 kPa, Liquid; for viscosity: Concentric cylinders viscometry; for mass density: Vibrating tube method

CCC(C)=O [butanone] + CCCCO
Settings | mass density, 308.15 K [kg/m3] | mass density, 313.15 K [kg/m3] | mass density, 318.15 K [kg/m3] | mass density, 323.15 K [kg/m3] | viscosity, 308.15 K [mPa·s] | viscosity, 313.15 K [mPa·s] | viscosity, 318.15 K [mPa·s] | viscosity, 323.15 K [mPa·s]
x1 = 0.0997 | 797.097 | 793.009 | 788.88 | 784.708 | 1.465 | 1.327 | 1.206 | 1.096
x1 = 0.1999 | 796.195 | 791.945 | 787.652 | 783.318 | 1.115 | 1.022 | 0.939 | 0.8726
x1 = 0.3003 | 795.288 | 790.885 | 786.442 | 781.954 | 0.8886 | 0.8197 | 0.7575 | 0.7156
x1 = 0.4008 | 794.369 | 789.819 | 785.228 | 780.593 | 0.7364 | 0.6843 | 0.637 | 0.6041
x1 = 0.5003 | 793.457 | 788.763 | 784.03 | 779.253 | 0.6314 | 0.5907 | 0.5532 | 0.5225
x1 = 0.6001 | 792.551 | 787.719 | 782.849 | 777.934 | 0.5453 | 0.5143 | 0.485 | 0.4597
x1 = 0.6992 | 791.666 | 786.701 | 781.696 | 776.652 | 0.48 | 0.4552 | 0.43 | 0.4101
x1 = 0.7991 | 790.793 | 785.7 | 780.568 | 775.398 | 0.4294 | 0.4073 | 0.386 | 0.369
x1 = 0.899 | 789.946 | 784.731 | 779.478 | 774.188 | 0.3918 | 0.3723 | 0.3532 | 0.3356
x1 = 1 | 789.142 | 783.814 | 778.451 | 773.047 | 0.3626 | 0.3461 | 0.3303 | 0.3168
